Assays:
[1] = biological target: Voltage-gated inwardly rectifying potassium channel KCNH2 (Homo sapiens, UniProt Q12809); experiment: Inhibition of human ERG by patch clamp method
[2] = biological target: T1, Adenosine receptor A1 (Homo sapiens) (UniProt P30542); experiment: Inhibition of adenosine A1 receptor at 1 uM
T1 sequence (whole entry): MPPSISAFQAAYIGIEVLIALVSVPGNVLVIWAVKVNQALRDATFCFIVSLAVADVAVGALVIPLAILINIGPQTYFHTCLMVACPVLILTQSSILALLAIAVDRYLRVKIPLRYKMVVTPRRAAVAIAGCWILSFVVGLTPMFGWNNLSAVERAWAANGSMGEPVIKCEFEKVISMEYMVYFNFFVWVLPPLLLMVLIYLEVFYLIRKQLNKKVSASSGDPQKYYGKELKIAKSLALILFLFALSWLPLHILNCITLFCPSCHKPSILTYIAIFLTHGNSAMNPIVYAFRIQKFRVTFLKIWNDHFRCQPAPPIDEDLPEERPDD

[3] = Selectivity for human glucocorticoid receptor over progesterone receptor
[4] = Inhibition of ATP-sensitive potassium channel at 1 uM
[5] = biological target: D(2) dopamine receptor (Homo sapiens) (UniProt P14416); experiment: Inhibition of dopamine D2S receptor at 1 uM
[6] = Inhibition of phorbol ester site of PKC at 1 uM
[7] = biological target: Histamine H1 receptor (Homo sapiens) (UniProt P35367); experiment: Inhibition of histamine H1 receptor at 1 uM
[8] = biological target: hERG (KCNH2) (Homo sapiens, UniProt Q12809); experiment: Inhibition of human ERG at 1 uM
[9] = biological target: T2, Glucocorticoid receptor (Homo sapiens, UniProt P04150); experiment: Agonist activity at glucocorticoid receptor in human fibroblast assessed as inhibition of IL-1-beta-induced IL6 production treated 1 hr before IL1-beta challenge measured after 24 hrs by transrepression assay; assay type: functional
T2 sequence (P04150 whole entry): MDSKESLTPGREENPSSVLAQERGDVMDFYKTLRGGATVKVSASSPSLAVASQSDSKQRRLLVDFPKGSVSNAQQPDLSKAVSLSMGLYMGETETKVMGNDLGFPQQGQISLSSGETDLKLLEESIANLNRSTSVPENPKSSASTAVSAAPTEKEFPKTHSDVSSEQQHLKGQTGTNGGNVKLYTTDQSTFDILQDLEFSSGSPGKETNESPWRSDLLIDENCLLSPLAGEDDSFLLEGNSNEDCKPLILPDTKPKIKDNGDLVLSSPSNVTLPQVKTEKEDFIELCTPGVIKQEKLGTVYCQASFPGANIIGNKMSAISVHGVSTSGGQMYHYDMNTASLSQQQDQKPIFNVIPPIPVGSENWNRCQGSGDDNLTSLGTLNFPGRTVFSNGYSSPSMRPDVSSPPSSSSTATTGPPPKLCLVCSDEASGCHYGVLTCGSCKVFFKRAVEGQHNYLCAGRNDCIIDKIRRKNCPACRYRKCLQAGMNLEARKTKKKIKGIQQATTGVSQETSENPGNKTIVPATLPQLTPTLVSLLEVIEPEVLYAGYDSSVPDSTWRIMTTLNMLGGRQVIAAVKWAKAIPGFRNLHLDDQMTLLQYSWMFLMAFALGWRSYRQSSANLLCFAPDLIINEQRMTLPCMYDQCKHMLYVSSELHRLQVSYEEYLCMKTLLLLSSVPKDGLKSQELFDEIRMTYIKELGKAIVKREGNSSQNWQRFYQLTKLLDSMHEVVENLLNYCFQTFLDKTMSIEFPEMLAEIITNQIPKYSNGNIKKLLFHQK

[10] = biological target: Adenosine receptor A2a (Homo sapiens) (UniProt P29274); experiment: Inhibition of adenosine A2A receptor at 1 uM
[11] = Inhibition of nicotinic bungarotoxin-sensitive acetylcholine receptor at 1 uM
[12] = Inhibition of sodium channel site 2 at 1 uM
[13] = biological target: T2, Glucocorticoid receptor; experiment: Agonist activity at glucocorticoid receptor in human MDA-kb2 cells transfected with MMTV-LUC assessed as induction of MMTV-LTR/promoter linked LUC gene by luciferase transactivation assay; assay type: functional, cell-based; settings: mda-kb2
[14] = Inhibition of calcium channel L type dihydropyridine binding site at 1 uM
[15] = biological target: T3, Alpha-1A adrenergic receptor (Homo sapiens) (UniProt P35348); experiment: Inhibition of adrenergic alpha1A receptor at 1 uM
T3 sequence (whole entry): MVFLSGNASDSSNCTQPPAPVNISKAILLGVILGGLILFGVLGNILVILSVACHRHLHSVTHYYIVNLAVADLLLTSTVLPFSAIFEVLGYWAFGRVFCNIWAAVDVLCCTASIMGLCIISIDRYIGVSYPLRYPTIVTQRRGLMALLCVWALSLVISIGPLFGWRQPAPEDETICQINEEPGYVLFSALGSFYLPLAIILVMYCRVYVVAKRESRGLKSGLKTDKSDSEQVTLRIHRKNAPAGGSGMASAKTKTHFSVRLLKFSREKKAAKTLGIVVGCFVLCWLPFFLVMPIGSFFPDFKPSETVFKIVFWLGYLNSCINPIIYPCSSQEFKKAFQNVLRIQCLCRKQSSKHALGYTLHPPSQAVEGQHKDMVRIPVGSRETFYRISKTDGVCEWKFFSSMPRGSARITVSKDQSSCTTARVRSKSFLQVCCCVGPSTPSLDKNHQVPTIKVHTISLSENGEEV

[16] = Selectivity for human glucocorticoid receptor over androgen receptor
[17] = Inhibition of central imidazoline I2 receptor at 1 uM
[18] = biological target: T2, Glucocorticoid receptor
Description: Binding affinity to human glucocorticoid receptor by fluorescence polarization competitive binding assay

[19] = biological target: Sigma non-opioid intracellular receptor 1 (Homo sapiens) (UniProt Q99720); experiment: Inhibition of sigma 1 receptor at 1 uM
[20] = Selectivity for human glucocorticoid receptor over ERbeta
[21] = biological target: Muscarinic acetylcholine receptor M3 (Homo sapiens) (UniProt P20309); experiment: Inhibition of muscarinic M3 receptor at 1 uM
[22] = biological target: Beta-1 adrenergic receptor (Homo sapiens) (UniProt P08588); experiment: Inhibition of adrenergic beta-1 receptor at 1 uM
[23] = Inhibition of sigma 2 receptor at 1 uM
[24] = Inhibition of GABAA receptor agonist site at 1 uM; assay type: functional
[25] = Inhibition of nicotinic acetylcholine receptor at 1 uM
[26] = biological target: Sodium-dependent noradrenaline transporter (Homo sapiens) (UniProt P23975); experiment: Inhibition of norepinephrine transporter at 1 uM
[27] = biological target: Beta-2 adrenergic receptor (Homo sapiens) (UniProt P07550); experiment: Inhibition of adrenergic beta2 receptor at 1 uM
[28] = Selectivity for human glucocorticoid receptor over ERalpha
[29] = Inhibition of phencyclidine receptor at 1 uM

Beta-2 adrenergic receptor (Homo sapiens), sequence (P07550 whole entry, looked up): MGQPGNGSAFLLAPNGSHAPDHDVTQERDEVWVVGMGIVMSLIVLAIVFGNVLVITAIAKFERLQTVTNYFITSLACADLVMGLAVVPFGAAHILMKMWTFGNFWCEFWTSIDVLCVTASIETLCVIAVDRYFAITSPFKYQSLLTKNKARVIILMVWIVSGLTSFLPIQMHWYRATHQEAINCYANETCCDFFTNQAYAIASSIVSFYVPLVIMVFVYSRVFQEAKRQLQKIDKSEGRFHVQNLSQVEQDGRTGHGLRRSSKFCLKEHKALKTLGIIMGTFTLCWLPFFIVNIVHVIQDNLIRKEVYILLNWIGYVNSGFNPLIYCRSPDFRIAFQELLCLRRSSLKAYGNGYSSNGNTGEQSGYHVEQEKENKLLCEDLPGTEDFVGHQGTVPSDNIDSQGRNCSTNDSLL
Beta-1 adrenergic receptor (Homo sapiens), sequence (P08588 whole entry, looked up): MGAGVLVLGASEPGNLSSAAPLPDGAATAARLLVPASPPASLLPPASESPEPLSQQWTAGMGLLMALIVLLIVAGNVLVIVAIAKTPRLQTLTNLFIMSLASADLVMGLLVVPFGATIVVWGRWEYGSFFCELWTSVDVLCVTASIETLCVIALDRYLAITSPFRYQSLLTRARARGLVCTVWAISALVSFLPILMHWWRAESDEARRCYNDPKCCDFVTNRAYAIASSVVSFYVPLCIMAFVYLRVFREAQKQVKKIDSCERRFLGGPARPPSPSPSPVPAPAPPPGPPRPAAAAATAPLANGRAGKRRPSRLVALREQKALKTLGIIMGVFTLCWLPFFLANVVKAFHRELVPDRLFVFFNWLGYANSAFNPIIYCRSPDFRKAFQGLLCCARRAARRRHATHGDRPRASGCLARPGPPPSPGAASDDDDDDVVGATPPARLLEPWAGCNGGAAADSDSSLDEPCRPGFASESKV
Adenosine receptor A2a (Homo sapiens), sequence (P29274 whole entry): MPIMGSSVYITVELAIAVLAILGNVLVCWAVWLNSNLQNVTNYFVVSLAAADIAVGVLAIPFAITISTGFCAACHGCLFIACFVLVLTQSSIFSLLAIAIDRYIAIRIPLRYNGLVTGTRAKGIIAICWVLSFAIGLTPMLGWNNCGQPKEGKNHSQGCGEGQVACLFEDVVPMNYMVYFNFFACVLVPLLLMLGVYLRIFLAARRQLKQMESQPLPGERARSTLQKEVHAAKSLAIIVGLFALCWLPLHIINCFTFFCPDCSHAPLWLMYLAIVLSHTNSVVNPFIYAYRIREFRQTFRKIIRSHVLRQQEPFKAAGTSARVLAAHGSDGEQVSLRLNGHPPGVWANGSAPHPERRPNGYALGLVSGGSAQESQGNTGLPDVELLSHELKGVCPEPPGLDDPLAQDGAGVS
Voltage-gated inwardly rectifying potassium channel KCNH2, sequence (Q12809 whole entry): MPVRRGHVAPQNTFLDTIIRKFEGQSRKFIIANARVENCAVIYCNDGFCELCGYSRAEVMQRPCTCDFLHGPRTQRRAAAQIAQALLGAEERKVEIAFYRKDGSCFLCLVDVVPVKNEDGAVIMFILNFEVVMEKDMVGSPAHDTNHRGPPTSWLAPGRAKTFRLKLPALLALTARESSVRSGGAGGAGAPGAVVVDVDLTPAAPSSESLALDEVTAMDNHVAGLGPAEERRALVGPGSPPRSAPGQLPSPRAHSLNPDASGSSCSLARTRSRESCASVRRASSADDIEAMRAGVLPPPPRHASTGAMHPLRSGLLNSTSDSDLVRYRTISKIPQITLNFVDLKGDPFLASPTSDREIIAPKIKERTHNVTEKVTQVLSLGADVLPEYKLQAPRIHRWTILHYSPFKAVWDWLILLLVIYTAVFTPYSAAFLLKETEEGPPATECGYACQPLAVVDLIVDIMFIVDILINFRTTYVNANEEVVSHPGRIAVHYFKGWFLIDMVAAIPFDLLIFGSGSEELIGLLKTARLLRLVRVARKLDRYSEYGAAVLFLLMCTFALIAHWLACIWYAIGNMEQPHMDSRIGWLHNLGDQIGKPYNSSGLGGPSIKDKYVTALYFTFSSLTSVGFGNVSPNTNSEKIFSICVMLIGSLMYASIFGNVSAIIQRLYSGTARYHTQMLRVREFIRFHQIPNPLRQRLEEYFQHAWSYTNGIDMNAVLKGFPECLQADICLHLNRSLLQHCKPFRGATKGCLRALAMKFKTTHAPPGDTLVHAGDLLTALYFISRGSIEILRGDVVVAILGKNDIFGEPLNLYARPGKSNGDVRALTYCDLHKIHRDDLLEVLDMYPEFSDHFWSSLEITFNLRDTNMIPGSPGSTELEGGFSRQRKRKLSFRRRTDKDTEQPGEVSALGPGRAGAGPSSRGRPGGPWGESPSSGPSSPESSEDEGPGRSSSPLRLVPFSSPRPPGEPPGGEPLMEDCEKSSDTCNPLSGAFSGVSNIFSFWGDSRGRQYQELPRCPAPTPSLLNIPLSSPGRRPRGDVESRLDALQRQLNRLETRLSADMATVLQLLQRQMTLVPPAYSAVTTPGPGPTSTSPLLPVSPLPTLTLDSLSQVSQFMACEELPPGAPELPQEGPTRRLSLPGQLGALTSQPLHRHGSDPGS
hERG (KCNH2), sequence (Q12809 whole entry): as above
Histamine H1 receptor (Homo sapiens), sequence (P35367 whole entry): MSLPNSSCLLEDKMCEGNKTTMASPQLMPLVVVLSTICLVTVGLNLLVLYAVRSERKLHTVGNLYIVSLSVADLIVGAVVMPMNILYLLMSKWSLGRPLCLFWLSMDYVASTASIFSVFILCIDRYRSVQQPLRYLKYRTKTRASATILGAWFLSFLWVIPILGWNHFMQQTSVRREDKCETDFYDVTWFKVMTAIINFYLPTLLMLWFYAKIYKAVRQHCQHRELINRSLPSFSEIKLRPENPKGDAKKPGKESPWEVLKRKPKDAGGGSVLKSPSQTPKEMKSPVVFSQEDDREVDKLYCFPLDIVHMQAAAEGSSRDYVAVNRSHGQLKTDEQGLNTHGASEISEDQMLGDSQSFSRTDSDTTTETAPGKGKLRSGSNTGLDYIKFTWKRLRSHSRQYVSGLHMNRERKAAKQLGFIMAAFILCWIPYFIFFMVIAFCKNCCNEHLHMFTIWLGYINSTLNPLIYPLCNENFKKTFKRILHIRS
Sodium-dependent noradrenaline transporter (Homo sapiens), sequence (P23975 whole entry): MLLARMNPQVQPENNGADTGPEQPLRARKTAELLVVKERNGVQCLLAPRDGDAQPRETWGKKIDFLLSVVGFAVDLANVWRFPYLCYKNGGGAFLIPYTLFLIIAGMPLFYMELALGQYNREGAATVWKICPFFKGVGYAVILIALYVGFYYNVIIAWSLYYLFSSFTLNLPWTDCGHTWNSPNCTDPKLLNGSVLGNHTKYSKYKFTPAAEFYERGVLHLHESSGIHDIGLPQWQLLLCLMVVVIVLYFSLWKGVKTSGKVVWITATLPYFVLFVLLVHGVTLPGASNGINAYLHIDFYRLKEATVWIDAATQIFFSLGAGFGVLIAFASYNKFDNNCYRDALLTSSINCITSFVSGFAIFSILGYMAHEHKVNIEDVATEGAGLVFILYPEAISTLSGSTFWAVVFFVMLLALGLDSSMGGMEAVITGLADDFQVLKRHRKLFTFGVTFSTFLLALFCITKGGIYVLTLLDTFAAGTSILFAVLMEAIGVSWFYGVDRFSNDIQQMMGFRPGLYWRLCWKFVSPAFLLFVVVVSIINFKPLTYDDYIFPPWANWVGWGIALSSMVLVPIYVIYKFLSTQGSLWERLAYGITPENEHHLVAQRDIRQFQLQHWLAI
Sigma non-opioid intracellular receptor 1 (Homo sapiens), sequence (Q99720 whole entry): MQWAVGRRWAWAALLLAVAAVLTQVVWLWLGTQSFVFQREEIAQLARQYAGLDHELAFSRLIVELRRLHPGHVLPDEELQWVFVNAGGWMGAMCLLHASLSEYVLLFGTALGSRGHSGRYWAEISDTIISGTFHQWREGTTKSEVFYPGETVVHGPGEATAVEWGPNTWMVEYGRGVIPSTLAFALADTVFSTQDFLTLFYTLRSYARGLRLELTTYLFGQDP

SMILES	IC50 [1] [nM]	inhibition [2] [%]	Ratio [3]	inhibition [4] [%]	inhibition [5] [%]	inhibition [6] [%]	inhibition [7] [%]	inhibition at 1 µM [8] [%]	EC50 [9] [nM]	inhibition [10] [%]	inhibition [11] [%]	inhibition [12] [%]	EC50 [13]	inhibition [14] [%]	inhibition [15] [%]	Ratio [16]	inhibition [17] [%]	IC50 [18] [nM]	inhibition [19] [%]	Ratio [20]	other results
Cc1cc(C(O)(c2ccc3c(cnn3-c3ccc(F)cc3)c2)C(F)(F)F)ccc1F (single isomer, unassigned; (-))	> 10000	< 50	> 1000	< 50	< 50	< 50	< 50	< 50	93	< 50	< 50	< 50	Not Active	< 50	< 50	> 1000	< 50	59	< 50	> 1000	inhibition [21]: < 50%; inhibition [22]: < 50%; inhibition [23]: < 50%; inhibition [24]: < 50%; inhibition [25]: < 50%; inhibition [26]: < 50%; inhibition [27]: < 50%; Ratio [28]: > 1000; inhibition [29]: < 50%
OC(c1ccnc(Cl)c1)(c1ccc2c(cnn2-c2ccc(F)cc2)c1)C(F)(F)F (single isomer, unassigned; (-))	> 10000	< 50	> 1000	< 50	< 50	< 50	< 50	< 50	627	< 50	< 50	< 50	Not Active	< 50	< 50	> 1000	< 50	14	< 50	> 1000	inhibition [21]: < 50%; inhibition [22]: < 50%; inhibition [23]: < 50%; inhibition [24]: < 50%; inhibition [25]: < 50%; inhibition [26]: < 50%; inhibition [27]: < 50%; Ratio [28]: > 1000; inhibition [29]: < 50%

From ChEMBL document CHEMBL1157802, “5-Functionalized indazoles as glucocorticoid receptor agonists” (Bioorg Med Chem Lett, 2010)
